Entries after “also recorded” stand apart in the source; their conditions may differ.
Test system: model rats for renal insufficiency
Assay: Suppressive action to the progression of renal failure in adenine-induced renal insufficiency model rats
Type: in vivo, Wistar-strain male rats
Text: (1) Suppressive Action of the Optical Isomer to the Progression of Renal Failure
Adenine was orally administered to Wistar-strain male rats of eight weeks age to prepare a renal insufficiency model. […] Further, a value of creatinine clearance (mL/kg/hr) decreased from 315.3±13.8 to 25.7±4.4 whereupon renal functions lowered to about one-tenth.
From the 7th to the 17th days from administration of adenine, each of (S)-(−)- 5-hydroxy-1-methylhydantoin, (R)-(+)-5-hydroxy-1-methylhydantoin and the racemate at the dose of 100 mg/kg or 200 mg/kg was orally administered to the rat in which renal insufficiency was induced by adenine. The creatinine levels in blood before and after the administration of the test drug were compared whereupon a suppressive action of the test drug to an increase of creatinine (ΔCr) accompanied by the progress of renal insufficiency was checked and the results are shown in FIG. 1 and FIG. 2. Five rats were used as a group for the test. The average value ± standard error was calculated and the significant difference between the test drug group and the diseased control group was statistically analyzed by means of Dunnett's test or Student-t test (*; p<0.05).

**Q.** CN1C(=O)NC(=O)[C@H]1O [(R)-(+)-5-hydroxy-1-methylhydantoin] was tested. Which “suppressive action to the progression of renal failure” value (as compared with the S-form and the racemate, oral, listed as R-form) did it give?
**A.** Its value is “excellent suppressive action; also recorded: particularly an excellent suppressive effect”.

**Q.** And the “suppressive action to an increase of creatinine in blood (ΔCr)” value (oral 100 mg/kg or 200 mg/kg, 7th to 17th day of adenine, vs diseased control, p<0.05, FIG. 1 and FIG. 3)?
**A.** Its value is “significantly suppressed”.
